From US10253002B2, “Compounds and methods of treating infections” (Neoculi Pty Ltd., priority 2013, dated 2019)
Values after ≈ are worked out from the molar mass of the structure shown.

test system: Pseudomonas aeruginosa; assay: Broth microdilution MIC, Example 7 (NCL812 and analogues); type: cell-based; details: 24 hours; 1st and 2nd replicate rows

Row | SMILES | MIC (μg/ml) at 24 hours, P. aeruginosa [µg/mL]
1 | N#Cc1ccccc1C=NNC(=S)NN=Cc1ccccc1C#N [NCL064] | >128
2 | N#Cc1cccc(/C=N/NC(=S)N/N=C/c2cccc(C#N)c2)c1 [NCL065] | >128
3 | Fc1cccc(/C=N/NC(=S)N/N=C/c2cccc(F)c2)c1 [NCL066] | >128
4 | NC(=O)N/N=C/c1cccc(C(F)(F)F)c1 [NCL067] | >128
5 | C/C(=N\NC(=N)N/N=C/c1ccc(C(F)(F)F)cc1)c1ccc(Cl)cc1.Cl [NCL068] | >128
6 | CC(=NNC(=N)NN)c1ccc(Cl)cc1.Cl [NCL069] | >128
7 | S=C(N/N=C/c1cccc(Cl)c1)N/N=C/c1cccc(Cl)c1 [NCL070] | >128

same assay, conditions: P. aeruginosa; 24 hours; duplicate lines per compound

Row | SMILES | MIC (μg/ml) at 24 hours, P. aeruginosa [µg/mL]
8 | Cl.N=C(NN)NN=Cc1ccc(Cl)cc1 [NCL072] | >128
9 | CC(=NNC(=N)NN)c1ccc(C(F)(F)F)cc1.Cl [NCL073] | >128
10 | C/C(=N\NC(=N)N/N=C/c1ccc(C(F)(F)F)cc1)c1ccc(C(F)(F)F)cc1.Cl [NCL075] | >128

test system: MRSA; assay: as above; type: cell-based, Staphylococcus aureus; details: MIC testing, two MRSA strains
In short: (§1)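 Turbidity read visually and then at 600 nm defined the MIC (μg/ml), comparing drug-containing wells with a growth-control well lacking antimicrobial. Testing followed the CLSI broth microdilution method, in duplicate, using two strains per organism group.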

Row | SMILES | activity against MRSA among analogues
11 | CC(=NNC(=N)NN)c1ccc(Cl)cc1.Cl [NCL069] | greatest activity
12 | Cl.N=C(NN)NN=Cc1ccc(Cl)cc1 [NCL072] | greatest activity
13 | CC(=NNC(=N)NN)c1ccc(C(F)(F)F)cc1.Cl [NCL073] | greatest activity

same assay, conditions: MRSA 1; 24 hours; duplicate lines per compound

Row | SMILES | MIC (μg/ml) at 24 hours, MRSA 1 [µg/mL]
14 | Cl.N=C(NN)NN=Cc1ccc(Cl)cc1 [NCL072] | 32
15 | CC(=NNC(=N)NN)c1ccc(C(F)(F)F)cc1.Cl [NCL073] | 128
16 | C/C(=N\NC(=N)N/N=C/c1ccc(C(F)(F)F)cc1)c1ccc(C(F)(F)F)cc1.Cl [NCL075] | >128

same assay, conditions: MRSA 2; 24 hours; duplicate lines per compound

Row | SMILES | MIC (μg/ml) at 24 hours, MRSA 2 [µg/mL]
17 | Cl.N=C(NN)NN=Cc1ccc(Cl)cc1 [NCL072] | 64
18 | CC(=NNC(=N)NN)c1ccc(C(F)(F)F)cc1.Cl [NCL073] | 128
19 | C/C(=N\NC(=N)N/N=C/c1ccc(C(F)(F)F)cc1)c1ccc(C(F)(F)F)cc1.Cl [NCL075] | >128

same assay, conditions: isolate MRSA 1; 24 hours; 1st and 2nd replicate rows

Row | SMILES | MIC (μg/ml) at 24 hours, MRSA 1 [µg/mL]
20 | N#Cc1ccccc1C=NNC(=S)NN=Cc1ccccc1C#N [NCL064] | >128
21 | N#Cc1cccc(/C=N/NC(=S)N/N=C/c2cccc(C#N)c2)c1 [NCL065] | >128
22 | Fc1cccc(/C=N/NC(=S)N/N=C/c2cccc(F)c2)c1 [NCL066] | >128
23 | NC(=O)N/N=C/c1cccc(C(F)(F)F)c1 [NCL067] | >128
24 | C/C(=N\NC(=N)N/N=C/c1ccc(C(F)(F)F)cc1)c1ccc(Cl)cc1.Cl [NCL068] | >128
25 | CC(=NNC(=N)NN)c1ccc(Cl)cc1.Cl [NCL069] | 128
26 | S=C(N/N=C/c1cccc(Cl)c1)N/N=C/c1cccc(Cl)c1 [NCL070] | >128

same assay, conditions: isolate MRSA 2; 24 hours; 1st and 2nd replicate rows

Row | SMILES | MIC (μg/ml) at 24 hours, MRSA 2 [µg/mL]
27 | N#Cc1ccccc1C=NNC(=S)NN=Cc1ccccc1C#N [NCL064] | >128
28 | N#Cc1cccc(/C=N/NC(=S)N/N=C/c2cccc(C#N)c2)c1 [NCL065] | >128
29 | Fc1cccc(/C=N/NC(=S)N/N=C/c2cccc(F)c2)c1 [NCL066] | >128
30 | NC(=O)N/N=C/c1cccc(C(F)(F)F)c1 [NCL067] | >128
31 | C/C(=N\NC(=N)N/N=C/c1ccc(C(F)(F)F)cc1)c1ccc(Cl)cc1.Cl [NCL068] | >128
32 | CC(=NNC(=N)NN)c1ccc(Cl)cc1.Cl [NCL069] | 128
33 | S=C(N/N=C/c1cccc(Cl)c1)N/N=C/c1cccc(Cl)c1 [NCL070] | >128

test system: Escherichia coli; assay: as above; type: cell-based; details: 24 hours; 1st and 2nd replicate rows

Row | SMILES | MIC (μg/ml) at 24 hours, E. coli [µg/mL]
34 | N#Cc1ccccc1C=NNC(=S)NN=Cc1ccccc1C#N [NCL064] | >128
35 | N#Cc1cccc(/C=N/NC(=S)N/N=C/c2cccc(C#N)c2)c1 [NCL065] | >128
36 | Fc1cccc(/C=N/NC(=S)N/N=C/c2cccc(F)c2)c1 [NCL066] | >128
37 | NC(=O)N/N=C/c1cccc(C(F)(F)F)c1 [NCL067] | >128
38 | C/C(=N\NC(=N)N/N=C/c1ccc(C(F)(F)F)cc1)c1ccc(Cl)cc1.Cl [NCL068] | >128
39 | CC(=NNC(=N)NN)c1ccc(Cl)cc1.Cl [NCL069] | >128
40 | S=C(N/N=C/c1cccc(Cl)c1)N/N=C/c1cccc(Cl)c1 [NCL070] | >128

same assay, conditions: E. coli; 24 hours; duplicate lines per compound

Row | SMILES | MIC (μg/ml) at 24 hours, E. coli [µg/mL]
41 | Cl.N=C(NN)NN=Cc1ccc(Cl)cc1 [NCL072] | >128
42 | CC(=NNC(=N)NN)c1ccc(C(F)(F)F)cc1.Cl [NCL073] | >128
43 | C/C(=N\NC(=N)N/N=C/c1ccc(C(F)(F)F)cc1)c1ccc(C(F)(F)F)cc1.Cl [NCL075] | >128

test system: VRE; assay: as above; type: cell-based, Enterococcus spp.; details: MIC testing, two VRE strains
In short: as §1

Row | SMILES | activity against VRE among analogues
44 | CC(=NNC(=N)NN)c1ccc(Cl)cc1.Cl [NCL069] | greatest activity
45 | S=C(N/N=C/c1cccc(Cl)c1)N/N=C/c1cccc(Cl)c1 [NCL070] | greatest activity
46 | Cl.N=C(NN)NN=Cc1ccc(Cl)cc1 [NCL072] | greatest activity
47 | CC(=NNC(=N)NN)c1ccc(C(F)(F)F)cc1.Cl [NCL073] | greatest activity

same assay, conditions: VRE 1; 24 hours; duplicate lines per compound

Row | SMILES | MIC (μg/ml) at 24 hours, VRE 1 [µg/mL]
48 | Cl.N=C(NN)NN=Cc1ccc(Cl)cc1 [NCL072] | 64
49 | CC(=NNC(=N)NN)c1ccc(C(F)(F)F)cc1.Cl [NCL073] | 16
50 | C/C(=N\NC(=N)N/N=C/c1ccc(C(F)(F)F)cc1)c1ccc(C(F)(F)F)cc1.Cl [NCL075] | >128

same assay, conditions: VRE 2; 24 hours; duplicate lines per compound

Row | SMILES | MIC (μg/ml) at 24 hours, VRE 2 [µg/mL]
51 | Cl.N=C(NN)NN=Cc1ccc(Cl)cc1 [NCL072] | 64
52 | CC(=NNC(=N)NN)c1ccc(C(F)(F)F)cc1.Cl [NCL073] | 64
53 | C/C(=N\NC(=N)N/N=C/c1ccc(C(F)(F)F)cc1)c1ccc(C(F)(F)F)cc1.Cl [NCL075] | >128

same assay, conditions: isolate VRE 1; 24 hours; 1st and 2nd replicate rows

Row | SMILES | MIC (μg/ml) at 24 hours, VRE 1 [µg/mL]
54 | N#Cc1ccccc1C=NNC(=S)NN=Cc1ccccc1C#N [NCL064] | >128
55 | N#Cc1cccc(/C=N/NC(=S)N/N=C/c2cccc(C#N)c2)c1 [NCL065] | >128
56 | Fc1cccc(/C=N/NC(=S)N/N=C/c2cccc(F)c2)c1 [NCL066] | >128
57 | NC(=O)N/N=C/c1cccc(C(F)(F)F)c1 [NCL067] | >128
58 | C/C(=N\NC(=N)N/N=C/c1ccc(C(F)(F)F)cc1)c1ccc(Cl)cc1.Cl [NCL068] | >128
59 | CC(=NNC(=N)NN)c1ccc(Cl)cc1.Cl [NCL069] | 128
60 | S=C(N/N=C/c1cccc(Cl)c1)N/N=C/c1cccc(Cl)c1 [NCL070] | >128

same assay, conditions: isolate VRE 2; 24 hours; 1st and 2nd replicate rows

Row | SMILES | MIC (μg/ml) at 24 hours, VRE 2 [µg/mL]
61 | N#Cc1ccccc1C=NNC(=S)NN=Cc1ccccc1C#N [NCL064] | >128
62 | N#Cc1cccc(/C=N/NC(=S)N/N=C/c2cccc(C#N)c2)c1 [NCL065] | >128
63 | Fc1cccc(/C=N/NC(=S)N/N=C/c2cccc(F)c2)c1 [NCL066] | >128
64 | NC(=O)N/N=C/c1cccc(C(F)(F)F)c1 [NCL067] | >128
65 | C/C(=N\NC(=N)N/N=C/c1ccc(C(F)(F)F)cc1)c1ccc(Cl)cc1.Cl [NCL068] | >128
66 | CC(=NNC(=N)NN)c1ccc(Cl)cc1.Cl [NCL069] | 64
67 | S=C(N/N=C/c1cccc(Cl)c1)N/N=C/c1cccc(Cl)c1 [NCL070] | 32 (≈ 91.1 µM)
